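Grown in 96-well plates, cells were treated for 48 hours with each compound at five concentrations. Insufficient inhibition: endpoint recorded as highest concentration tested. The concentration for 50% growth inhibition is given as GI50.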 Active and inactive are the calls of the source. No stated cut-off is given here; in the data, active = GI50 up to about 1.1 µM and inactive = higher.
Legend:
Experiment in all cases: inhibition of tumour cell growth, NCI panel, 48 h
[1] = system: DLD-1
[2] = system: SF-295
[3] = system: NCI-H522
[4] = system: SNB-75
[5] = system: SK-MEL-28
[6] = system: HT-29
[7] = system: DMS-114
[8] = system: MOLT-4
[9] = system: UO-31
[10] = system: LXFL 529
[11] = system: OVCAR-5
[12] = system: XF498
[13] = system: DMS-273
[14] = system: M19-MEL
[15] = system: NCI-H226
[16] = system: A498
[17] = system: Hs-578T
[18] = system: T47D
[19] = system: PC-3
[20] = system: BT-549

Measured: GI50

O=C1OC2(OC2c2ccc(Cl)cc2)c2ccccc21 (configuration not stated)
inactive: [1] > 100 µM | [2] 85.7 µM | [3] 31.9 µM | [4] 48.1 µM | [5] > 100 µM | [6] > 100 µM | [7] 64.7 µM | [8] > 100 µM | [9] > 100 µM | [10] 22.7 µM | [11] > 100 µM | [12] 43.4 µM | [13] > 100 µM | [14] > 100 µM | [15] > 100 µM

O=C(O)c1cc2sc(C(=O)O)cc2s1
inactive: [1] > 100 µM | [2] > 100 µM | [3] > 100 µM | [4] > 100 µM | [6] > 100 µM | [7] > 100 µM | [8] > 100 µM | [9] > 10 µM | [10] > 100 µM | [11] > 100 µM | [16] > 100 µM | [12] > 100 µM | [13] > 100 µM | [14] > 100 µM | [15] > 100 µM

C=C(C(=O)C(=O)Oc1ccc(Cl)cc1)C(=O)c1ccc(C)cc1
inactive: [1] 28.4 µM | [2] 76 µM | [3] 17.9 µM | [4] 39.2 µM | [5] 71.1 µM | [6] 31.1 µM | [7] 30.9 µM | [8] 58.3 µM | [9] 40.2 µM | [10] 27.9 µM | [11] > 100 µM | [16] > 100 µM | [12] > 100 µM | [13] 39.2 µM | [14] 17.7 µM | [15] > 100 µM

c1ccc2cc3n[se]nc3cc2c1
inactive: [1] 62.4 µM | [2] 39.4 µM | [3] > 100 µM | [4] 56.9 µM | [5] > 100 µM | [6] > 100 µM | [7] > 100 µM | [8] 75.5 µM | [9] 55.8 µM | [10] > 100 µM | [11] > 100 µM | [13] > 100 µM

Cc1c2cnccc2c(C)c2c1c1ccccc1n2CCCCCCNCc1ccccc1
active: [1] 0.879 µM | [8] 0.167 µM
inactive: [2] 1.82 µM | [3] 2.15 µM | [4] 2.05 µM | [5] 2.38 µM | [6] 1.36 µM | [7] 1.83 µM | [9] 1.99 µM | [11] 1.75 µM | [16] 2.11 µM | [12] 2.29 µM | [13] 1.21 µM | [14] 2.09 µM | [15] 1.55 µM

O=C1C(Cl)N(c2ccccc2)C1c1c[nH]c2ccccc12 (configuration not stated)
inactive: [2] > 100 µM | [3] > 100 µM | [4] > 100 µM | [5] > 100 µM | [6] > 100 µM | [7] > 100 µM | [8] > 100 µM | [9] 65.6 µM | [10] > 100 µM | [11] 46 µM | [12] > 100 µM | [14] > 100 µM

CC(C)OP(=O)(OC(C)C)/C(I)=N/Nc1ccc([N+](=O)[O-])cc1
inactive: [1] > 100 µM | [2] > 100 µM | [3] > 100 µM | [4] > 100 µM | [5] > 100 µM | [6] > 100 µM | [7] > 100 µM | [8] > 100 µM | [9] 98.4 µM | [10] > 100 µM | [11] > 100 µM | [16] > 100 µM | [12] > 100 µM | [13] > 100 µM | [14] > 100 µM

COC(OC)C1OC(CO)C(n2cc(F)c(=O)[nH]c2=O)C1O (configuration not stated)
inactive: [17] > 100 µM | [2] > 100 µM | [3] > 100 µM | [18] 25.4 µM | [4] > 100 µM | [5] > 100 µM | [6] > 100 µM | [8] > 100 µM | [9] > 100 µM | [11] > 100 µM | [19] > 100 µM | [16] > 100 µM | [20] > 100 µM | [15] > 100 µM

O=c1oc2ccccc2n1P(=O)(n1c(=O)oc2ccccc21)n1c(=O)oc2ccccc21
inactive: [1] > 100 µM | [2] > 100 µM | [3] > 100 µM | [4] 90.2 µM | [5] > 100 µM | [6] > 100 µM | [7] > 100 µM | [8] > 100 µM | [9] > 100 µM | [10] > 100 µM | [11] > 100 µM | [16] > 100 µM | [12] > 100 µM | [13] > 100 µM | [14] 60.3 µM | [15] > 100 µM

c1ccc(/N=C2\SC3=NCCN3\C2=N/c2ccccc2)cc1
inactive: [17] 36.9 µM | [2] 17.5 µM | [3] 13.6 µM | [18] 9.12 µM | [4] 18 µM | [5] 17 µM | [6] 16.4 µM | [8] 3.47 µM | [9] 13.5 µM | [11] 20.1 µM | [19] 13.1 µM | [16] 19.8 µM | [20] 15.2 µM | [15] 20.6 µM

C/C(=C1/N=C(c2cc([N+](=O)[O-])ccc2Cl)N(c2ccc(Br)cc2)C1=O)c1cc2ccccc2oc1=O
inactive: [1] 22.1 µM | [2] 80.5 µM | [3] 10.6 µM | [4] 33.8 µM | [5] 60.8 µM | [6] 42.1 µM | [7] 10.1 µM | [8] 20.2 µM | [9] 23.7 µM | [10] 6.78 µM | [11] > 100 µM | [16] 20.7 µM | [14] 5.89 µM | [15] > 100 µM

NC1(C(=O)O)CCCC1 [CYCLOLEUCINE]
inactive: [1] > 625 µM | [2] > 625 µM | [3] > 625 µM | [4] > 625 µM | [5] > 625 µM | [6] > 625 µM | [7] > 625 µM | [8] > 625 µM | [9] > 625 µM | [11] > 625 µM | [12] 5.77 µM | [13] > 625 µM | [14] > 625 µM | [15] > 625 µM

Source: ChEMBL document CHEMBL1201862, “PubChem BioAssay data set” (2004)
